Among the test systems are SF-268; NCI/ADR-RES; SN12C; MDA-N; RXF 393; UACC-257; SW-620; NCI-H226; Malme-3M; HCT-15; A549; OVCAR-5; SK-MEL-28; SNB-75; U-251; OVCAR-4; MDA-MB-435; BT-549; SNB-19; UACC-62.
Common to all, as to assay: NCI tumour cell line growth inhibition, 48 h

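Exposure lasted 48 hours, with cells grown in 96-well plates and compounds tested at five concentrations. Abbreviation: GI50, concentration required for 50% inhibition of growth.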 Activity calls are given as the source filed them. Cut-off read from the data, not from the text of the source: active = GI50 up to about 1.1 µM and inactive = higher.

With `C=C1C(=O)OC2CC1C(OC(=O)/C=C/c1ccccc1)C/C(C)=C/CC/C(C)=C/CCC2(C)O` (stereo not given), the GI50 in the assay with SF-268 is 1.68 µM (inactive); in the assay with NCI/ADR-RES, 1.74 µM (inactive); in the assay on SN12C it was 1.57 µM (inactive); in the assay with MDA-N, 1.38 µM (inactive); with RXF 393, 1.34 µM (inactive); with UACC-257, 1.87 µM (inactive). Besides, the GI50 is 1.04 µM (active) with SW-620; 1.64 µM (inactive) in the assay on NCI-H226; 2 µM (inactive) with Malme-3M; 0.889 µM with HCT-15; 1.71 µM (inactive) with A549; 1.75 µM (inactive) with OVCAR-5. Also, the GI50 in the assay with SK-MEL-28 was 2.3 µM (inactive); in the assay with SNB-75 it was 1.43 µM (inactive); with U-251, 1.84 µM (inactive); in the assay with OVCAR-4, 0.82 µM (active); in the assay with MDA-MB-435, 1.46 µM (inactive); in the assay on BT-549, 1.05 µM (active). Also, the GI50 is 1.89 µM (inactive) in the assay with SNB-19 and 1.95 µM (inactive) in the assay with UACC-62.

For `CC(C)(C)OC(=O)N(O)CCCn1cnc2c(N)ncnc21`, the GI50 with SF-268, in the assay on NCI/ADR-RES, in the assay with SN12C, in the assay on MDA-N, with RXF 393 and with UACC-257 was > 100 µM (inactive) in each case. In addition, the GI50 with SW-620 is > 100 µM (inactive); in the assay on NCI-H226, > 100 µM (inactive); in the assay on Malme-3M, > 100 µM (inactive); in the assay on HCT-15, greater than 100 µM; with A549 it was > 100 µM (inactive); in the assay on OVCAR-5, > 100 µM (inactive). In addition, the GI50 in the assay on SK-MEL-28, in the assay on SNB-75, in the assay with U-251, with OVCAR-4, in the assay with MDA-MB-435 and in the assay on BT-549 was > 100 µM (inactive) each time. Besides, the GI50 with SNB-19 and in the assay on UACC-62 was > 100 µM (inactive) in each case.

Regarding `O=C(OCCNC(=O)N1CC1)OCCNC(=O)N1CC1`, the GI50 in the assay with SF-268, with NCI/ADR-RES, in the assay with SN12C, in the assay on MDA-N, in the assay on RXF 393 and with UACC-257 was > 10 µM (inactive) each time. Moreover, the GI50 with SW-620 was > 10 µM (inactive); in the assay with NCI-H226, > 10 µM (inactive); in the assay on Malme-3M, > 10 µM (inactive); in the assay with HCT-15, greater than 10 µM; in the assay on A549, > 10 µM (inactive); in the assay with OVCAR-5 it was > 10 µM (inactive). Also, the GI50 with SK-MEL-28, with SNB-75, in the assay with U-251, in the assay on OVCAR-4, in the assay on MDA-MB-435 and in the assay with BT-549 was > 10 µM (inactive) throughout. The GI50 with SNB-19 and with UACC-62 was > 10 µM (inactive) in each case.

On to `CN(C)c1ccc(/C=C2\N=C(NN)NC2=O)cc1`, for which the GI50 in the assay on SF-268 was > 100 µM (inactive); in the assay with NCI/ADR-RES, 82.2 µM (inactive); in the assay on SN12C it was > 100 µM (inactive); in the assay with MDA-N it was 73.8 µM (inactive); with RXF 393 it was 63.5 µM (inactive); in the assay on UACC-257 it was > 100 µM (inactive). For the same compound, the GI50 in the assay on SW-620 was 98.2 µM (inactive); with NCI-H226 it was 78.2 µM (inactive); in the assay with Malme-3M it was > 100 µM (inactive); with HCT-15 it was 50.8 µM; with A549, 61.8 µM (inactive); in the assay on OVCAR-5, > 100 µM (inactive). Moreover, the GI50 in the assay with SK-MEL-28 is > 100 µM (inactive); in the assay with SNB-75, > 100 µM (inactive); in the assay with U-251 it was 47.6 µM (inactive); with OVCAR-4 it was 79.4 µM (inactive); in the assay with MDA-MB-435, 58.6 µM (inactive); in the assay on BT-549 it was > 100 µM (inactive). For the same compound, the GI50 with SNB-19 and in the assay on UACC-62 was > 100 µM (inactive) in each case.

Source of the values: ChEMBL document CHEMBL1201862, “PubChem BioAssay data set” (2004).
